{"source": "ChEMBL document CHEMBL1155491", "about": "“Acylurea connected straight chain hydroxamates as novel histone deacetylase inhibitors: Synthesis, SAR, and in vivo antitumor activity” (Bioorg Med Chem Lett, 2010)", "key": {"[1]": {"test": "Octanol-water distribution coefficient, log D of the compound", "type": "physicochemical"}, "[2]": {"system": "PC-3", "test": "Antitumor activity against human PC3 cells xenografted in nude mouse assessed as inhibition of tumor growth at 200 mg/kg, ip administered for 21 days measured or day 22", "type": "functional", "conditions": "PC-3, ip, route intraperitoneal, read-out: TGI"}, "[3]": {"test": "Apparent permeability from apical to basolateral side of Caco-2 cells", "type": "ADME, cell-based", "conditions": "human"}, "[4]": {"system": "A2780", "test": "Antiproliferative activity against human A2780 cells", "type": "functional, cell-based"}, "[5]": {"test": "Toxicity in human PC3 cells xenografted nude mouse", "type": "organism-based, PC-3", "conditions": "in vivo"}, "[6]": {"target": "Histone deacetylase 1 (Homo sapiens, UniProt Q13547)", "sequence (Q13547 whole entry)": "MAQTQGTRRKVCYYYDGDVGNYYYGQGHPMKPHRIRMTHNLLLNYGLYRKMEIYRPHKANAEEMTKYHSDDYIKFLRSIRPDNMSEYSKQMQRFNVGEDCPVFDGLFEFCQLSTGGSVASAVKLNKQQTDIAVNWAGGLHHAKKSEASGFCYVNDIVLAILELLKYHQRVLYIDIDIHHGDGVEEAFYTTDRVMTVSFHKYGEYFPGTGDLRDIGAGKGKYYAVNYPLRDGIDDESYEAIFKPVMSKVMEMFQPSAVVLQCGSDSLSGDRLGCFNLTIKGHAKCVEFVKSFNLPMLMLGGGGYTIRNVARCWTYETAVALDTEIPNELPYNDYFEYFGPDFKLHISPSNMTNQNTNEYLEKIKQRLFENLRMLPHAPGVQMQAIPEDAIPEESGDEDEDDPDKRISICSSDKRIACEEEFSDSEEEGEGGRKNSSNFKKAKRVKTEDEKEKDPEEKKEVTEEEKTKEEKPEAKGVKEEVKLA"}, "[7]": {"system": "PC-3", "test": "animal or person", "type": "functional, Homo sapiens", "conditions": "Mus musculus, PC-3, ip, route intraperitoneal, read-out: TGI"}, "[8]": {"test": "Oral bioavailability in mouse at 50 mg/kg, po", "conditions": "in vivo"}, "[9]": {"system": "NCI-H522", "test": "Antiproliferative activity against human NCI-H522 cells", "type": "functional, cell-based"}, "[10]": {"test": "Half life in human liver microsome", "type": "ADME", "conditions": "liver microsomes"}, "[11]": {"target": "Histone deacetylase 4 (Homo sapiens, UniProt P56524)", "sequence (P56524 whole entry)": "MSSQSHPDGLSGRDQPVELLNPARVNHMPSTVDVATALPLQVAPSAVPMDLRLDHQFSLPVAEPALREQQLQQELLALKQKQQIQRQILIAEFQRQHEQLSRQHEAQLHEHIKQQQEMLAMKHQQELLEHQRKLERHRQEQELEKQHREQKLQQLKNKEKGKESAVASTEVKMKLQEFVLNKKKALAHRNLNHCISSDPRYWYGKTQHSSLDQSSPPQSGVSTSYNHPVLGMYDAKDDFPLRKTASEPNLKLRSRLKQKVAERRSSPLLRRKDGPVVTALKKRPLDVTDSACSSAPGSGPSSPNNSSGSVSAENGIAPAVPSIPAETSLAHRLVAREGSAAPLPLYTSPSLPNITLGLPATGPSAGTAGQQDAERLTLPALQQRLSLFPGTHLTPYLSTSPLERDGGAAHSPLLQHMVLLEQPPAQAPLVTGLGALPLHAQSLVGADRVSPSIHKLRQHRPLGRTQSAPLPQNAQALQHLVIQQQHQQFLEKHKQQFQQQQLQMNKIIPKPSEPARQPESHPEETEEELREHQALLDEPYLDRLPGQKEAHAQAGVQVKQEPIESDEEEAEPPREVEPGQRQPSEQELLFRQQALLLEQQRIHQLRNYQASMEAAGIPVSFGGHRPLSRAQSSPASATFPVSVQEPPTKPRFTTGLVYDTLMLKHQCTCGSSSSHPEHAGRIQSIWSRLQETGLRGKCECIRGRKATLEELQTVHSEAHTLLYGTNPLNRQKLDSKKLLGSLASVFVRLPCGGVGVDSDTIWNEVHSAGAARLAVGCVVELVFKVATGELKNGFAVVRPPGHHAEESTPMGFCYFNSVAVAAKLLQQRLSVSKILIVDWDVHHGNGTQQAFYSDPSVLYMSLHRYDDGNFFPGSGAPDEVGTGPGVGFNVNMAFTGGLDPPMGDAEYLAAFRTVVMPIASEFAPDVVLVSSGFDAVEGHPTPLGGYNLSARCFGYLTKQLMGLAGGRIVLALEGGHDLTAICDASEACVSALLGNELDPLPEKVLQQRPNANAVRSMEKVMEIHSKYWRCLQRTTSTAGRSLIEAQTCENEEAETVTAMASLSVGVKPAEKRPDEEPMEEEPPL", "test": "Inhibition of HDAC4"}, "[12]": {"target": "T1, Protein deacetylase HDAC6 (Homo sapiens, UniProt Q9UBN7)", "T1 sequence (Q9UBN7 whole entry)": "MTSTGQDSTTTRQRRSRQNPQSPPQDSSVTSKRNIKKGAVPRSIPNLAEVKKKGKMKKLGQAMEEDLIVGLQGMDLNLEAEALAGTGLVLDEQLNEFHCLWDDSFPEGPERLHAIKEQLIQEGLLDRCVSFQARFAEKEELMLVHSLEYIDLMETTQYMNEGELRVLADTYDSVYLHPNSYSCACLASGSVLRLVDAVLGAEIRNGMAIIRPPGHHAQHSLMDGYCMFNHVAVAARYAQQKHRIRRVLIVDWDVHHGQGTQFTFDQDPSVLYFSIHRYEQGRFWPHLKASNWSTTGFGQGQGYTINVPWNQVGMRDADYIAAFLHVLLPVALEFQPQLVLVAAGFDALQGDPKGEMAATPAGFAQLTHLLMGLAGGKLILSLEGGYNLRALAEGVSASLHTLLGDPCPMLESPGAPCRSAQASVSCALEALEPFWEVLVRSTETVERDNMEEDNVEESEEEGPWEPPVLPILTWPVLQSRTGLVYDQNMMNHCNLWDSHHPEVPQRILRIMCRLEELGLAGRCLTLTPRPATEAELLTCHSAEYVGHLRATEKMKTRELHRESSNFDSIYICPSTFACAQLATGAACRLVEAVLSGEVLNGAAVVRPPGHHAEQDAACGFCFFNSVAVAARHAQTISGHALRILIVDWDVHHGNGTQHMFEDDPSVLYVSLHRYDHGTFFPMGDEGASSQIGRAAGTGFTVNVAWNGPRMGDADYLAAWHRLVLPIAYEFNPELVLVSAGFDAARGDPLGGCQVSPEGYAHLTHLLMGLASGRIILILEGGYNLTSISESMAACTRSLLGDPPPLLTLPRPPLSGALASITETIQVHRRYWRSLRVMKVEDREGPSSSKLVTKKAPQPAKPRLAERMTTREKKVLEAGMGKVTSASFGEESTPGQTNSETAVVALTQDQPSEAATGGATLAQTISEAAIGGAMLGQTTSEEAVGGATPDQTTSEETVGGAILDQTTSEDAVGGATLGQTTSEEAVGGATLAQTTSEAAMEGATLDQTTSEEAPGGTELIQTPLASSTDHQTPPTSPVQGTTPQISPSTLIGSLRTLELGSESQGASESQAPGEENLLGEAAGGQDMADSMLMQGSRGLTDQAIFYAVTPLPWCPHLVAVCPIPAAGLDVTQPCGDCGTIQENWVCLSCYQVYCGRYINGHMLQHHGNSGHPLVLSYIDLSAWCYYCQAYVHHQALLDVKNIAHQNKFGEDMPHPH", "test": "Inhibition of HDAC6"}, "[13]": {"system": "Mus musculus", "test": "Toxicity in human HCT116 cells xenografted BALB/c mouse at 200 mg/kg, po", "type": "organism-based, HCT-116", "set-up": "dose 200 mg/kg, route oral", "conditions": "in vivo"}, "[14]": {"test": "Half life in rat liver microsome", "type": "ADME", "conditions": "liver microsomes"}}, "data": [{"compound": "O=C(CCCCCNC(=O)NC(=O)c1ccccc1)NO", "values": [{"measurement": "logD", "setting": "[1]", "result": 0.75}, {"measurement": "inhibition in vivo at 200 mg/kg", "setting": "[2]", "result": 73, "unit": "%"}, {"measurement": "Papp A→B", "setting": "[3]", "result": 3.12, "unit": "×10⁻⁶ cm/s"}, {"measurement": "IC50", "setting": "[4]", "result": 700, "unit": "nM"}, {"measurement": "MTD", "setting": "[5]", "result": 200, "unit": "mg/kg"}, {"measurement": "IC50", "setting": "[6]", "result": 53, "unit": "nM"}, {"measurement": "Ki", "setting": "[6]", "result": 16, "unit": "nM"}, {"measurement": "inhibition in vivo at 160 mg/kg", "setting": "[7]", "result": 57, "unit": "%"}, {"measurement": "bioavailability", "setting": "[8]", "result": 62, "unit": "%"}, {"measurement": "IC50", "setting": "[9]", "result": 500, "unit": "nM"}, {"measurement": "half-life", "setting": "[10]", "result": "> 1", "unit": "h"}, {"measurement": "Ki", "setting": "[11]", "result": 20, "unit": "nM"}, {"measurement": "Ki", "setting": "[12]", "result": 7, "unit": "nM"}, {"measurement": "Activity", "setting": "[13]", "result": "Toxic"}, {"measurement": "half-life", "setting": "[14]", "result": "> 1", "unit": "h"}]}]}
